# In US20250127813A1, “COMBINATION DRUG” (OTSUKA PHARMACEUTICAL CO., LTD., priority 2021, published 2025):
# “Also recorded” adds a separate entry of the source. Read-outs that look alike come from different tables or passages of the source.
# Test system: NALM6-luc2
# Method: 6-week-old NOG mice produced by In-Vivo Science Co., Ltd., were obtained, and tumor cells were intravenously transplanted into the mice at 7 weeks of age to prepare tumor-bearing mice. The day before the transplantation, busulfex (BSF) was intraperitoneally administered at 20 mg/kg. During the breeding period, the mice were housed with 5 mice per group and bred in a P2A breeding room set to a temperature of 24° C. (actual measurement: 19.7 to 25.0° C.), humidity of 50% (actual measurement: 38.6 to 58.5%), and illumination of 12 hours/day (8:00 a.m. to 8:00 p.m.). During the breeding period, the mice were allowed free access to radiation-sterilized solid feed for mice (CL-2, produced by Clea Japan, Inc.) and autoclave-sterilized tap water placed in a water bottle.
# CD19 CAR-T cells were intravenously administered once according to the group constitution on the same day as grouping. The IAP antagonist also started to be administered on the same day as grouping and was orally or intravenously administered according to the group constitution table.
# The evaluation period was set to 3 to 4 weeks. Grouping and pharmacological evaluation were performed based on tumor luminescence values as determined by IVIS (trademark). Luminescence value measurement by IVIS (trademark) and body weight measurement were performed twice a week.
# For NALM6-luc2, after resuspension, a portion of the cell suspension was taken, dead cells were stained with AOPI Staining Solution, and the number of viable cells was counted with a blood cell measuring device. A cell suspension was prepared by diluting the cells with RPMI 1640 to 1×10^7 cells/mL, based on the measurement results of viable cell count of the cells. Similarly, in a low tumor volume system, a cell suspension was prepared by diluting the cells with serum-free RPMI 1640 to achieve a concentration of 1×10^6 cells/mL.
# After the mice were retained using a retainer, a cell suspension was transplanted at 1×10^6 cells/0.1 mL/body using a 27G Myjector (1 mL, produced by Terumo Corporation) to the tail vein of each mouse with no anesthesia. In the low tumor volume system, a cell suspension at 1×10^5 cells/0.1 mL/body was transplanted.
# In accordance with the dosing regimen shown in FIG. 6, NALM6-luc2 was transplanted the day after treating the […] with busulfex. On the third day after the transplantation, luminescence values were measured using the IVIS (trademark) Lumina X5 In-Vivo imaging system (produced by PerkinElmer, Co., Ltd.). Using the luminous values as an indicator and using SAS software R9.4 (produced by SAS Institute Japan), the mice were divided into groups of 5 mice each by the stratified random sampling method.
# 1) A suspension of CD19 CAR-T cells was administered to the tail vein at the time of grouping. For the dosage, the number of viable CD19 CAR-T cells was counted and a cell suspension prepared according to the group constitution table was administered once at 0.1 mL/body. For the administration, a Myjector syringe with a 27G needle was used.
# 5) Birinapant was intraperitoneally administered at a dose of 10 mL/kg according to the group composition table. Tolinapant, LCL161, and AT406 were orally administered at a dose of 10 mL/kg according to the group composition table using a sonde in the same manner. For intraperitoneal administration, an insulin syringe with a 26G needle was used in place of the sonde. For oral administration, a needle was used in place of the sonde to administer each drug.
# VivoGlo™-luciferin (produced by Promega) was dissolved in D-PBS(−) to achieve a concentration of 30 mg/mL and then cryopreserved at −20° C. under light-shielded conditions. On the day of measurement, dissolved VivoGlo™-luciferin was diluted with an equivalent amount of D-PBS(−) and stored at room temperature under light-shielded conditions until use for testing. Based on the body weight measured in advance, VivoGlo™-luciferin was intraperitoneally administered in a volume of 10 mL/kg.
# [1] = combined use with CD19 CAR-T, AUC up to day 14
# [2] = combined use with CD19 CAR-T, AUC up to day 17
# [3] = combined use with CD19 CAR-T, maximum tumor volume (luminescence value)
smiles,measurement,setting,value
"C[C@@H]1CN(CC(=O)N2CC(C)(C)c3nc(CO)c(Cc4ccc(F)cc4)cc32)[C@@H](CN2CCOC[C@H]2C)CN1 [Tolinapant, 1-[6-[(4-fluorophenyl)methyl]-5-(hydroxymethyl)-3,3-dimethyl-2H-pyrrolo[3,2-b]pyridin-1-yl]-2-[(2R,5R)-5-methyl-2-[[(3R)-3-methylmorpholin-4-yl]methyl]piperazin-1-yl]ethanone]",maximum effect / drug efficacy-enhancement effect of combination with tolinapant compared with other IAP antagonists,"combination with CD19 CAR-T, versus AT406, LCL161, birinapant",the combination with tolinapant was superior; also recorded: a higher drug efficacy-enhancement effect than combinations with any other IAP antagonist
same,"t-Test using AUC as an indicator (day 14), Tolinapant versus AT406",[1],<0.05
same,"t-Test using AUC as an indicator (day 14), Tolinapant versus Birinapant",[1],<0.05
same,"t-Test using AUC as an indicator (day 14), Tolinapant versus LCL161",[1],<0.05
same,"t-Test using AUC as an indicator (day 17), Tolinapant versus AT406",[2],<0.05
same,"t-Test using AUC as an indicator (day 17), Tolinapant versus Birinapant",[2],<0.05
same,"t-Test using AUC as an indicator (day 17), Tolinapant versus LCL161",[2],<0.05
same,"t-Test using AUC as an indicator (day 17), Tolinapant versus AT406","combined use with CD19 CAR-T, AUC up to day 17, listed as tolinapant",a significance due to combined use of tolinapant could be observed
same,"t-Test using the maximum tumor volume as an indicator, Tolinapant versus AT406",[3],<0.05
same,"t-Test using the maximum tumor volume as an indicator, Tolinapant versus Birinapant",[3],<0.05
same,"t-Test using the maximum tumor volume as an indicator, Tolinapant versus LCL161",[3],<0.05
same,"t-Test using the maximum tumor volume as an indicator, Tolinapant versus AT406","combined use with CD19 CAR-T, maximum tumor volume (luminescence value), listed as tolinapant",a significant difference
same,effect of tolinapant + 1×10^5 cells CD19 CAR-T compared with 1×10^6 cells CD19 CAR-T alone,tolinapant 16 mg/kg qd po + CD19 CAR-T 1×10^5 cells/body iv,an effect equivalent to the effect achieved by using 1×10^6 cells of CD19 CAR-T alone was observed on day 14; also recorded: better tumor regression was observed on day 14 and thereafter
same,combination effect of tolinapant and CD19 CAR-T (tumor luminescence value),"tolinapant 16 mg/kg qd po + CD19 CAR-T 1×10^5 cells/body iv, versus tolinapant only or CD19 CAR-T only","significantly improved effect (p<0.05); also recorded: a significant combination effect was observed on day 7 and thereafter; also recorded: significant, highly reproducible results"
same,efficacy of tolinapant administered alone,"tolinapant alone, 16 mg/kg, daily oral administration",showed no efficacy; also recorded: no effect
